In US20160120863A1, “SLC2A TRANSPORTER INHIBITORS” (IOMET PHARMA LTD., priority 2013, published 2016):

How the values were obtained:
Assay type in all cases: cell-based
human GLUT1 = target: T1, human GLUT1 (Homo sapiens, UniProt P11166); assay: [3H]-deoxy-D-glucose uptake assay, GLUT1; settings: [3H]-deoxy-D-glucose uptake in HEK293 cells stably expressing human GLUT1
T1 construct: expressed in transfected cells
T1 sequence (P11166 1-492): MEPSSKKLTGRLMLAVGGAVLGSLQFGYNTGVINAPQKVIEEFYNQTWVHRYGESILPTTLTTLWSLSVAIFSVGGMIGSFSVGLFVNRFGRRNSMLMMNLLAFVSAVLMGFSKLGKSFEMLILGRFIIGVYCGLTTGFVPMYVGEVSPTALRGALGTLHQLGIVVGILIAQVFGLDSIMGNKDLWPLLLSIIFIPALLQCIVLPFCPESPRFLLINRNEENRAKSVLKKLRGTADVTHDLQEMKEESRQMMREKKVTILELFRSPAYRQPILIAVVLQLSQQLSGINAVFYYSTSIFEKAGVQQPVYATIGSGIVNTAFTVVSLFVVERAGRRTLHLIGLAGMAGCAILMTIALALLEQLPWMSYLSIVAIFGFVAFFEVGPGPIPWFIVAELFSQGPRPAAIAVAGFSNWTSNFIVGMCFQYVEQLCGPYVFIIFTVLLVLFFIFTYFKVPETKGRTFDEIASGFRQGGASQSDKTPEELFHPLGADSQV
Outline: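 HEK293 cells stably overexpressing human GLUT1 or GLUT2, seeded at 60,000 per well, treated with compounds in glucose-free uptake buffer for 30 min at 37 °C. [3H]-deoxy-D-glucose uptake quantified by scintillation counting after ice-cold PBS washes; IC50 determined.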

human GLUT2 = target: T2, human GLUT2 (Homo sapiens, UniProt P11168); assay: [3H]-deoxy-D-glucose uptake assay, GLUT2; settings: [3H]-deoxy-D-glucose uptake in HEK293 cells stably expressing human GLUT2
T2 construct: expressed in transfected cells
T2 sequence (P11168 1-524): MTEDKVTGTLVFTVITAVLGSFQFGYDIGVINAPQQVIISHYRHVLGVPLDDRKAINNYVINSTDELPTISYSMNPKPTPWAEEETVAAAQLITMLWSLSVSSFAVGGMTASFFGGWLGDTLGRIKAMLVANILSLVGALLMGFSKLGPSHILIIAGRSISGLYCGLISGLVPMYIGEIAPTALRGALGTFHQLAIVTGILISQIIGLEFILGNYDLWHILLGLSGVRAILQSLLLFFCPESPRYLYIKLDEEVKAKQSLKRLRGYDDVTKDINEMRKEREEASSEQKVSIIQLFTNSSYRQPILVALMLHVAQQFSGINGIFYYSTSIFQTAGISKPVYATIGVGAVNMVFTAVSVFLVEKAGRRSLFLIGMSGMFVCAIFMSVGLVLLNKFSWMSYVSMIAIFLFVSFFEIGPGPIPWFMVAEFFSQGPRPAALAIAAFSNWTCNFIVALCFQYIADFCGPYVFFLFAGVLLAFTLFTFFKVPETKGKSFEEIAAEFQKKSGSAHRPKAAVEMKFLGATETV
Description: (§1) HEK293 cells were engineered to stably express either human GLUT1, GLUT2, GLUt3 or GLUT4 by transfection with the pReceiver-Lv105 plasmid, containing either hGLUT1, hGLUT2, hGLUT3, or hGLUT4 gene constructs with lipofectamine 2000, hGLUT1- hGLUT2- hGLUT3- or hGLUT4-overexpressing polyclonal populations were isolated under purinomycin selective pressure (1 μg/ml) and maintained in Dulbecco's modified Eagle's medium supplemented with 1 μg/ml purinomycin+10% foetal bovine serum (FBS).
60,000 cells per well were seeded overnight into poly-D-lysine coasted 96-well plates. […] 90 μl of test compounds were added in glucose-free uptake buffer and cells were incubated at 37° C. for 30 min.
(§2) Cells were then washed twice with ice-cold PBS and 100 μl of Microscint-20 was added per well. Glucose uptake was quantified with a scintillation counter. The half maximal inhibitory concentration (IC50) (a measure of the effectiveness of the test compound in inhibiting glucose uptake) was determined.

human GLUT3 = target: T3, human GLUT3 (Homo sapiens, UniProt P11169); assay: [3H]-deoxy-D-glucose uptake assay, GLUT3; settings: [3H]-deoxy-D-glucose uptake in HEK293 cells stably expressing human GLUT3
T3 construct: expressed in transfected cells
T3 sequence (P11169 1-496): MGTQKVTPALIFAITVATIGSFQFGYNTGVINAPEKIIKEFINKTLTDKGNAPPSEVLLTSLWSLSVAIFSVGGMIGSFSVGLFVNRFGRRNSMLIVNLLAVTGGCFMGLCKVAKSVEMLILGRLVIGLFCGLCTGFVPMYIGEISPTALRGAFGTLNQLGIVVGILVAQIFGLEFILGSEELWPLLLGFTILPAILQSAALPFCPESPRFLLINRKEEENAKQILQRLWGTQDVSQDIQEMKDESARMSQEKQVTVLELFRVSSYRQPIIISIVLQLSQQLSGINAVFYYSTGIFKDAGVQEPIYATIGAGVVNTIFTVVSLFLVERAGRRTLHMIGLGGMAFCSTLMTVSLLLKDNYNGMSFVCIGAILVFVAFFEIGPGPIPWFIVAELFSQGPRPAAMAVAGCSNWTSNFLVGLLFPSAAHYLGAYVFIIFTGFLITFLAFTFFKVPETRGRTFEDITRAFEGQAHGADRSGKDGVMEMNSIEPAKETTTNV
Description: as §1
(§3) 60,000 cells per well were seeded overnight into poly-D-lysine coasted 96-well plates. Following media removal, cells were washed twice in warm glucose-free uptake buffer (25 mM HEPES/KOH pH 7.4, 125 mM NaCl, 4.8 mM KCl, 1.2 mM MgSO4, 1.2 mM CaCl2, 1.2 mM KH2PO4). 90 μl of test compounds were added in glucose-free uptake buffer and cells were incubated at 37° C. for 30 min. 10 μl of [3H]-deoxy-D-glucose (0.25 μCi, 125 μM final assay concentration) was then added per well in glucose-free uptake buffer and uptake was allowed to proceed at 37° C. for 30 min.
as §2

human GLUT4 = target: T4, human GLUT4 (Homo sapiens, UniProt P14672); assay: [3H]-deoxy-D-glucose uptake assay, GLUT4; settings: [3H]-deoxy-D-glucose uptake in HEK293 cells stably expressing human GLUT4
T4 construct: expressed in transfected cells
T4 sequence (P14672 1-509): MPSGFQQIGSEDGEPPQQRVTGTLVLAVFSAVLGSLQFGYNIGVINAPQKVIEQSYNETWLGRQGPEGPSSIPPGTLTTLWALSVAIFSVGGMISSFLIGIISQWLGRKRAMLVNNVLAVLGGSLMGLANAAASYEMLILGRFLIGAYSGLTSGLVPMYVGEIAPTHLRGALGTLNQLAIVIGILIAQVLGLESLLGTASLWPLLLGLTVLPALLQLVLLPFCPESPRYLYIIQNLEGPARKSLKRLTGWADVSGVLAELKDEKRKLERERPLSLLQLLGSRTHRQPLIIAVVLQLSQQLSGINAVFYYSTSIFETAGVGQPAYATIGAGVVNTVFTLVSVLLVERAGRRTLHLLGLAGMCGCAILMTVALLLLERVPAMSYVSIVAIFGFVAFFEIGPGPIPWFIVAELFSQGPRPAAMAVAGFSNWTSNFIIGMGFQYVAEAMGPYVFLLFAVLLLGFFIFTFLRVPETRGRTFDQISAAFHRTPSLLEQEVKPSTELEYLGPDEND
Description: as §1, §3, §2

GLUT1 pIC50 (human GLUT1) | GLUT2 pIC50 (human GLUT2) | GLUT3 pIC50 (human GLUT3) | GLUT4 pIC50 (human GLUT4) | Structure (SMILES)
+++ (pIC50 ≧ 6.00) | +++ (pIC50 ≧ 6.00) | +++ (pIC50 ≧ 6.00) | +++ (pIC50 ≧ 6.00) | O=C(c1cccc(F)c1)N1CCN(Cc2c(-c3ccc(Cl)cc3)nc3ccc(-c4ccccc4)cn23)CC1 [Compound 8]
+− (pIC50 < 4.00) | +− (pIC50 < 4.00) | + (pIC50 4.00-4.99) | ++ (pIC50 5.00-5.99) | Fc1ccc(-c2ccc3nc(-c4ccc(Cl)cc4)c(CN4CCOCC4)n3c2)cc1 [Compound 79]
+++ (pIC50 ≧ 6.00) | – | +++ (pIC50 ≧ 6.00) | +++ (pIC50 ≧ 6.00) | Fc1ccccc1-c1ccc2nc(-c3ccc(Cl)cc3)c(CN3CCOCC3)n2c1 [Compound 80]
+++ (pIC50 ≧ 6.00) | – | +++ (pIC50 ≧ 6.00) | +++ (pIC50 ≧ 6.00) | Clc1ccc(-c2nc3ccc(-c4ccccc4Cl)cn3c2CN2CCOCC2)cc1 [Compound 116]
+++ (pIC50 ≧ 6.00) | +++ (pIC50 ≧ 6.00) | +++ (pIC50 ≧ 6.00) | +++ (pIC50 ≧ 6.00) | Fc1cccc(F)c1-c1ccc2nc(-c3ccc(Cl)cc3)c(CN3CCOCC3)n2c1 [Compound 143]
+++ (pIC50 ≧ 6.00) | +++ (pIC50 ≧ 6.00) | +++ (pIC50 ≧ 6.00) | +++ (pIC50 ≧ 6.00) | Clc1ccc(-c2nc3cnc(C4CC4)cn3c2CN2CCOCC2)cc1 [Compound 164]
+++ (pIC50 ≧ 6.00) | – | +++ (pIC50 ≧ 6.00) | +++ (pIC50 ≧ 6.00) | Cc1c(-c2ccccc2)ccc2nc(-c3ccc(Cl)cc3)c(CN3CCOCC3)n12 [Compound 170]
+++ (pIC50 ≧ 6.00) | +++ (pIC50 ≧ 6.00) | +++ (pIC50 ≧ 6.00) | +++ (pIC50 ≧ 6.00) | CC(=O)N1CCN(Cc2c(-c3ccc(Cl)cc3)nc3cnc(C4CC4)cn23)CC1 [Compound 187]
+++ (pIC50 ≧ 6.00) | +++ (pIC50 ≧ 6.00) | +++ (pIC50 ≧ 6.00) | +++ (pIC50 ≧ 6.00) | CC(=O)N1CCN(Cc2c(-c3ccc(Cl)cc3)nc3ccc(-c4ccccc4C#N)cn23)CC1 [Compound 214]
+++ (pIC50 ≧ 6.00) | +++ (pIC50 ≧ 6.00) | +++ (pIC50 ≧ 6.00) | +++ (pIC50 ≧ 6.00) | Fc1cccc(F)c1-c1cn2c(CN3CCOCC3)c(-c3ccc(Cl)cc3)nc2cn1 [Compound 238]
+++ (pIC50 ≧ 6.00) | ++ (pIC50 5.00-5.99) | +++ (pIC50 ≧ 6.00) | +++ (pIC50 ≧ 6.00) | CN(c1ccc2nc(-c3ccc(Cl)cc3)c(CN3CCOCC3)n2c1)S(C)(=O)=O [Compound 252]
